Reference: ChEMBL document CHEMBL1129003, “Cycloleonuripeptides A, B and C, three new proline-rich cyclic nonapeptides from Leonurus heterophyllus” (Bioorg Med Chem Lett, 1996)
≈ marks a conversion by molar mass, not a printed value.

Tested on: P388
Test: Compound was evaluated for the growth inhibitory activity against p-388 lymphocytic leukemia cells.
Assay type: functional, cell-based, Mus musculus

CC[C@@H](C)[C@H]1NC(=O)[C@@H](CC[S+](C)[O-])NC(=O)[C@H]2CCCN2C(=O)[C@H]2CCCN2C(=O)[C@@H](Cc2ccc(O)cc2)NC(=O)[C@H]2CCCN2C(=O)[C@H]2CCCN2C(=O)[C@H]2CCCN2C(=O)CNC1=O (single isomer, unassigned; isomer 1)
IC50 (p388): 6 µg/mL (≈ 6.21 µM)

CC[C@@H](C)[C@H]1NC(=O)[C@@H](CC[S+](C)[O-])NC(=O)[C@H]2CCCN2C(=O)[C@H]2CCCN2C(=O)[C@@H](Cc2ccc(O)cc2)NC(=O)[C@H]2CCCN2C(=O)[C@H]2CCCN2C(=O)[C@H]2CCCN2C(=O)CNC1=O (single isomer, unassigned; isomer 2)
IC50 (Mus musculus, P388, read-out: IC50): 3.7 µg/mL (≈ 3.83 µM)
